Assay results published in ChEMBL document CHEMBL1201862, “PubChem BioAssay data set” (2004).
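These data come from cells grown in 96-well plates and exposed to compound for 48 hours at five concentrations. GI50 is the concentration that inhibits growth by half.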 Activity calls are given as the source filed them. No stated cut-off is given here; in the data, active = GI50 up to about 1.1 µM and inactive = higher.

What was measured:
Experiment in all cases: NCI tumour cell line growth inhibition, 48 h
BT-549 = system: BT-549
COLO 205 = system: COLO 205
OVCAR-4 = system: OVCAR-4
DU-145 = system: DU-145
TK-10 = system: TK-10
OVCAR-8 = system: OVCAR-8
SK-MEL-5 = system: SK-MEL-5
RPMI-8226 = system: RPMI-8226
MDA-N = system: MDA-N
KM12 = system: KM12
HT-29 = system: HT-29
NCI/ADR-RES = system: NCI/ADR-RES
Malme-3M = system: Malme-3M
Hs-578T = system: Hs-578T
HCT-116 = system: HCT-116

| SMILES | GI50 (BT-549) | GI50 (COLO 205) | GI50 (OVCAR-4) | GI50 (DU-145) | GI50 (TK-10) | GI50 (OVCAR-8) | GI50 (SK-MEL-5) | GI50 (RPMI-8226) | GI50 (MDA-N) | GI50 (KM12) | GI50 (HT-29) | GI50 (NCI/ADR-RES) | GI50 (Malme-3M) | GI50 (Hs-578T) | GI50 (HCT-116) |
| --- | --- | --- | --- | --- | --- | --- | --- | --- | --- | --- | --- | --- | --- | --- | --- |
| O[C@@]12Cc3c([nH]c4ccccc34)[C@@H]3Oc4cccc5c4[C@@]31CCN(CC1CC1)[C@@H]2C5 | 19.8 µM (inactive) | 31.4 µM (inactive) | 22.5 µM (inactive) | 27 µM (inactive) | 19.2 µM (inactive) | 15.1 µM (inactive) | 24.3 µM (inactive) | 19.4 µM (inactive) | 19.6 µM (inactive) | 39.7 µM (inactive) | 15.9 µM (inactive) | 33.4 µM (inactive) | 19.5 µM (inactive) | – | – |
| CSc1ncc2c(n1)sc1c(=O)n(-c3ccccc3)cnc12 | > 100 µM (inactive) | > 100 µM (inactive) | > 100 µM (inactive) | > 100 µM (inactive) | > 100 µM (inactive) | > 100 µM (inactive) | > 100 µM (inactive) | > 100 µM (inactive) | > 100 µM (inactive) | > 100 µM (inactive) | > 100 µM (inactive) | > 100 µM (inactive) | > 100 µM (inactive) | > 100 µM (inactive) | > 100 µM (inactive) |
| O=C1N/C(=N/N=C/c2c[nH]c3ccccc23)N/C1=C\c1cccs1 | > 100 µM (inactive) | > 100 µM (inactive) | > 100 µM (inactive) | > 100 µM (inactive) | > 100 µM (inactive) | > 100 µM (inactive) | 70.3 µM (inactive) | 40.4 µM (inactive) | > 100 µM (inactive) | 55.8 µM (inactive) | 52.2 µM (inactive) | 55.3 µM (inactive) | 61.8 µM (inactive) | > 100 µM (inactive) | 53.8 µM (inactive) |
| CCSc1nc(N/N=C/c2cccs2)c2cnn(CO)c2n1 | – | 4.73 µM (inactive) | 23.6 µM (inactive) | 10.3 µM (inactive) | 6.14 µM (inactive) | 4.16 µM (inactive) | 3.46 µM (inactive) | – | – | 0.408 µM (active) | 3.85 µM (inactive) | 3.91 µM (inactive) | 13.8 µM (inactive) | 4.31 µM (inactive) | 5.01 µM (inactive) |
| CCCCCCCCCCCCCCCCCc1cc(Cl)nc(Cl)n1 | > 100 µM (inactive) | – | > 100 µM (inactive) | – | > 100 µM (inactive) | > 100 µM (inactive) | > 100 µM (inactive) | 43.7 µM (inactive) | – | > 100 µM (inactive) | > 100 µM (inactive) | > 100 µM (inactive) | > 100 µM (inactive) | > 100 µM (inactive) | – |
| N#Cc1ccc(-c2nc(C#N)c(N)o2)cc1 | > 10 µM (inactive) | > 10 µM (inactive) | > 10 µM (inactive) | > 10 µM (inactive) | > 10 µM (inactive) | > 10 µM (inactive) | > 10 µM (inactive) | > 10 µM (inactive) | > 10 µM (inactive) | > 10 µM (inactive) | > 10 µM (inactive) | > 10 µM (inactive) | > 10 µM (inactive) | > 10 µM (inactive) | > 10 µM (inactive) |
| Cn1c(C(C#N)c2nc(Cl)ncc2Br)nc2ccccc21 (configuration not stated) | > 100 µM (inactive) | > 100 µM (inactive) | > 100 µM (inactive) | > 100 µM (inactive) | > 100 µM (inactive) | > 100 µM (inactive) | > 100 µM (inactive) | > 100 µM (inactive) | > 100 µM (inactive) | > 100 µM (inactive) | > 100 µM (inactive) | > 100 µM (inactive) | > 100 µM (inactive) | – | > 100 µM (inactive) |
| CC1(C)OC2OC(COC(=O)c3ccc(C#N)cc3)C3OC(C)(C)OC3C2O1 (configuration not stated) | > 75 µM (inactive) | > 75 µM (inactive) | > 75 µM (inactive) | > 75 µM (inactive) | > 75 µM (inactive) | > 75 µM (inactive) | > 75 µM (inactive) | 57.8 µM (inactive) | > 75 µM (inactive) | > 75 µM (inactive) | > 75 µM (inactive) | > 75 µM (inactive) | 61 µM (inactive) | – | > 75 µM (inactive) |
| c1ccc(COc2nc3cc(C45CC6CC(CC(C6)C4)C5)ccc3[nH]2)cc1 | 19.8 µM (inactive) | 4.01 µM (inactive) | > 31.3 µM (inactive) | 20.1 µM (inactive) | 4.65 µM (inactive) | 18 µM (inactive) | 5.53 µM (inactive) | 5.07 µM (inactive) | 11.9 µM (inactive) | 15.5 µM (inactive) | 3.53 µM (inactive) | 7.45 µM (inactive) | 9.16 µM (inactive) | 23 µM (inactive) | 9.08 µM (inactive) |
| CC1=C(C(=O)OCCc2ccc([N+](=O)[O-])cc2)C(c2cccc([N+](=O)[O-])c2)C(C(=O)OC(C)C)=C(C)N1 (configuration not stated) | 2.94 µM (inactive) | 5.81 µM (inactive) | > 100 µM (inactive) | > 100 µM (inactive) | 44.4 µM (inactive) | 4.88 µM (inactive) | 2.62 µM (inactive) | 2.88 µM (inactive) | 5.11 µM (inactive) | 6.05 µM (inactive) | 4.94 µM (inactive) | 3.33 µM (inactive) | 6.75 µM (inactive) | 2.86 µM (inactive) | 3.69 µM (inactive) |
| Nc1ccc(Sc2nnc(N)s2)cc1 | – | > 100 µM (inactive) | > 100 µM (inactive) | – | > 100 µM (inactive) | > 100 µM (inactive) | > 100 µM (inactive) | > 100 µM (inactive) | > 100 µM (inactive) | > 100 µM (inactive) | – | > 100 µM (inactive) | – | > 100 µM (inactive) | > 100 µM (inactive) |
| CN(CCCNc1ccc2ncn3c4ccccc4c(=O)c1c23)CCCN1C(=O)c2cccc3cc([N+](=O)[O-])cc(c23)C1=O | 0.106 µM (active) | 0.00815 µM (active) | 0.131 µM (active) | – | 0.00221 µM (active) | 0.0205 µM (active) | 0.01 µM (active) | 0.0132 µM (active) | 0.0321 µM (active) | 0.0292 µM (active) | 0.00149 µM (active) | 0.0376 µM (active) | 0.0244 µM (active) | 0.0879 µM (active) | 0.00174 µM (active) |
| CC(C)(C)OC(=O)C1C(=O)NC(=O)CC1CC(OCc1ccccc1)C(COCc1ccccc1)OCc1ccccc1 (configuration not stated) | 5.48 µM (inactive) | – | 6.55 µM (inactive) | 23.6 µM (inactive) | > 100 µM (inactive) | 10.3 µM (inactive) | 12.6 µM (inactive) | 3.07 µM (inactive) | 16.2 µM (inactive) | – | 3.45 µM (inactive) | 10 µM (inactive) | 3.06 µM (inactive) | 14 µM (inactive) | 5.36 µM (inactive) |
| COC(=O)C1=C(C(=O)OC)C2(C)C=CC1O2 (configuration not stated) | 23.1 µM (inactive) | 4.22 µM (inactive) | 13.1 µM (inactive) | 17.9 µM (inactive) | 2.49 µM (inactive) | 17.4 µM (inactive) | 18.5 µM (inactive) | 1.91 µM (inactive) | – | – | 15.2 µM (inactive) | 19.6 µM (inactive) | 2.92 µM (inactive) | 26.4 µM (inactive) | 10.5 µM (inactive) |
| CNC1=C(C)C(=O)C2=C(C1=O)C(COC(N)=O)C1(OC)C3NC3CN21 (configuration not stated) | – | 0.187 µM (active) | 2.95 µM (inactive) | – | 3.1 µM (inactive) | 0.644 µM (active) | 0.0445 µM (active) | 3.13 µM (inactive) | 0.574 µM (active) | 0.413 µM (active) | 0.207 µM (active) | – | 0.571 µM (active) | 2.49 µM (inactive) | 0.209 µM (active) |
| Oc1ccc2ccccc2c1/N=N/c1cccc2ccccc12 | > 100 µM (inactive) | > 100 µM (inactive) | > 100 µM (inactive) | > 100 µM (inactive) | > 100 µM (inactive) | 44.1 µM (inactive) | > 100 µM (inactive) | – | > 100 µM (inactive) | > 100 µM (inactive) | – | > 100 µM (inactive) | 91.6 µM (inactive) | 21.1 µM (inactive) | > 100 µM (inactive) |
| CCSc1[nH]c(/N=C(/NC(=O)c2ccccc2)NC(C)C)c(C(N)=O)c1C(N)=O | – | > 10 µM (inactive) | > 10 µM (inactive) | > 10 µM (inactive) | > 10 µM (inactive) | > 10 µM (inactive) | > 10 µM (inactive) | > 10 µM (inactive) | > 10 µM (inactive) | > 10 µM (inactive) | > 10 µM (inactive) | – | > 10 µM (inactive) | – | – |
| O=C1Sc2ccccc2/C1=N/Nc1ccccc1[N+](=O)[O-] | – | > 100 µM (inactive) | 36.1 µM (inactive) | > 100 µM (inactive) | > 100 µM (inactive) | 56.4 µM (inactive) | 65.2 µM (inactive) | > 100 µM (inactive) | 57 µM (inactive) | > 100 µM (inactive) | > 100 µM (inactive) | – | 94.8 µM (inactive) | 36.1 µM (inactive) | > 100 µM (inactive) |
| CC1=CC(C)C(C)N(CCNC(=O)Nc2ccccc2)c2ccccc21 (configuration not stated) | – | 16.6 µM (inactive) | 27.4 µM (inactive) | 32.7 µM (inactive) | 20.9 µM (inactive) | 15.5 µM (inactive) | 14.1 µM (inactive) | 14.6 µM (inactive) | 22.5 µM (inactive) | 26.8 µM (inactive) | 12 µM (inactive) | 18.2 µM (inactive) | 24.6 µM (inactive) | 2.33 µM (inactive) | 13.9 µM (inactive) |
| COc1cc(O)cc(/C=C/c2ccc(O)cc2)c1 | 13.6 µM (inactive) | > 100 µM (inactive) | 44.6 µM (inactive) | 39 µM (inactive) | 29.4 µM (inactive) | 23.8 µM (inactive) | 30.7 µM (inactive) | 4.07 µM (inactive) | – | 25.4 µM (inactive) | 40.4 µM (inactive) | 38.9 µM (inactive) | 32.6 µM (inactive) | 44.7 µM (inactive) | 32 µM (inactive) |
